For eight molecules, IC50 results are on record in patent publication US10954214B2 (Janssen Pharmaceutica NV, priority 2016, dated 2021).

Assay [1] relates to IL6 secretion by OCI-LY3 ABC-DLBCL cells. The experiment in a line: Human IL6 Mesoscale assay (OCI-LY3). The settings on record: Homo sapiens, 24 h. The class given is cell-based. In outline:
(§1)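 100,000 cells/well treated with compound in 9 twofold steps from 15 μM to 58.6 nM (0.3% DMSO) for 24 h at 37° C; supernatant cytokine measured by MSD electrochemiluminescence sandwich immunoassay. DMSO wells set maximum signal, BTK inhibitor RN486 (30 nM to 131 pM) set maximum inhibition.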

Assay [2] has as its system OCI-Ly3 cells. The experiment in a line: 4-day proliferation assay, OCI-Ly3. The format is cell-based, human. The note with it: Homo sapiens, 96 h, 4 days incubation, CellTiterGLO, read-out: Anti-proliferation: OCI-LY-3 IC50. Summed up:
(§2)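 TMD8 and OCI-Ly3 cells were seeded at 10,000 per well and grown 4 days at 37° C, 5% CO2 without beta-mercaptoethanol. Viability was read by CellTiter-Glo luminescence. IC50 and Hill slope were fitted relative to the low control median.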
In general terms: In ATP-based viability assays light output follows the ATP content of the culture.

Assay [3] concerns IL10 secretion by OCI-LY3 ABC-DLBCL cells. Briefly: Human IL10 Mesoscale assay (OCI-LY3). The class given is cell-based. The note with it: Homo sapiens, 24 h. Summed up: as §1
Assay [4] addresses full-length MALT1 protein (Strep-MALT1(1-824)-His) (Homo sapiens (Human), UniProt Q9UDY8). Briefly: MALT1 Biochemical Protease Assay (Ac-LRSR-AMC substrate). The settings on record: 10 nM FL MALT1, 200 μM Ac-LRSR-AMC, 4 h at RT; read-out: MALT1_Biochemical activity (Ac-LRSR-amc) IC50. Summed up: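 Full-length MALT1 pre-incubated with compounds (30 μM to 0.5 nM, 11 threefold steps) for 50 min at RT. After Ac-LRSR-AMC was added, the reaction ran 4 h at RT and AMC fluorescence was read. IC50 and Hill slope from curve fitting against no-enzyme and no-compound controls.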

In assay [5] the test system is TMD8 cells. Briefly: 4-day proliferation assay, TMD8. The format is cell-based. The note with it: Homo sapiens, 96 h, 4 days incubation, CellTiterGLO, read-out: Anti-proliferation: TMD-8 IC50. In outline:
as §2

full-length MALT1 protein (Strep-MALT1(1-824)-His), sequence (Q9UDY8 whole entry): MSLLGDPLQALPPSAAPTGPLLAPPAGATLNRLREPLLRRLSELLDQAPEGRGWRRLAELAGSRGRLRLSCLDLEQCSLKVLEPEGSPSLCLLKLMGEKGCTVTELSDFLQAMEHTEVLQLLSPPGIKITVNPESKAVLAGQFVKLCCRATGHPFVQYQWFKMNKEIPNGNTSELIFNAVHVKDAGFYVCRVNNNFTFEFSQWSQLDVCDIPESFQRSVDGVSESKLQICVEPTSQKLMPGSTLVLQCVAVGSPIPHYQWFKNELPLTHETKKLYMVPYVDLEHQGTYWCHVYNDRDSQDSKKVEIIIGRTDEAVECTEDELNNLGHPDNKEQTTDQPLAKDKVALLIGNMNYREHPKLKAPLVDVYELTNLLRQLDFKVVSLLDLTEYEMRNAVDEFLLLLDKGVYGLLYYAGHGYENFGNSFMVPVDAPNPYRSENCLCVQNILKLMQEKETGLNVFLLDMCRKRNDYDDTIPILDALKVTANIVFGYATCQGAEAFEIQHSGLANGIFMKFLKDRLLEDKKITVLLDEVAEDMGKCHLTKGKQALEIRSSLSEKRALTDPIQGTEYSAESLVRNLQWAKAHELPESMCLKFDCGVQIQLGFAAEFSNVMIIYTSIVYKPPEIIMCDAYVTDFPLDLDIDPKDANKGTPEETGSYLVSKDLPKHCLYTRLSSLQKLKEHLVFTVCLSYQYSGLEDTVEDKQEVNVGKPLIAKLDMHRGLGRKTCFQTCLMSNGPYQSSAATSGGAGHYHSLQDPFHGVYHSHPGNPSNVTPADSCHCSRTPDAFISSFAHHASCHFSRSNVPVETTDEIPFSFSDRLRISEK

Regarding `N#Cc1cc(NC(=O)c2cnn(-c3cnc(N)c4c(F)cccc34)c2C(F)(F)F)cnc1-n1nccn1` [Cpd 111, 1-(1-amino-8-fluoroisoquinolin-4-yl)-N-(5-cyano-6-(2H-1,2,3-triazol-2-yl)pyridin-3-yl)-5-(trifluoromethyl)-1H-pyrazole-4-carboxamide], the IC50 was 107 nM in assay [1]; 284 nM in assay [2]; 89 nM in assay [3]; 10 nM in assay [4]; 3310 nM in assay [5].
For `Cc1nc(-n2nccn2)c(Cl)cc1NC(=O)c1cnn(-c2cccc3c(=O)[nH]ccc23)c1C(F)(F)F` [Cpd 112, N-(5-chloro-2-methyl-6-(2H-1,2,3-triazol-2-yl)pyridin-3-yl)-1-(1-oxo-1,2-dihydroisoquinolin-5-yl)-5-(trifluoromethyl)-1H-pyrazole-4-carboxamide] the same measures were 115 nM, 966 nM, 98 nM, 17 nM and 6310 nM.
The corresponding values for `N#Cc1cc(NC(=O)c2cnn(-c3cccc4c(=O)[nH]ccc34)c2C(F)(F)F)cnc1-n1nccn1` [Cpd 113, N-(5-cyano-6-(2H-1,2,3-triazol-2-yl)pyridin-3-yl)-1-(1-oxo-1,2-dihydroisoquinolin-5-yl)-5-(trifluoromethyl)-1H-pyrazole-4-carboxamide] are 170 nM, 912 nM, 79 nM, 11 nM and 13800 nM.
The corresponding values for `N#Cc1cc(NC(=O)c2cnn(-c3cccc4ncsc34)c2C(F)(F)F)cnc1-n1nccn1` [Cpd 114, 1-(benzo[d]thiazol-7-yl)-N-(5-cyano-6-(2H-1,2,3-triazol-2-yl)pyridin-3-yl)-5-(trifluoromethyl)-1H-pyrazole-4-carboxamide] are 34 nM, 193 nM, 29 nM, 11 nM and 2690 nM.
Take `O=C(Nc1cnc(-n2nccn2)c(Cl)c1)c1cnn(-c2cncc3c(F)cccc23)c1C(F)(F)F` [Cpd 117, N-(5-chloro-6-(2H-1,2,3-triazol-2-yl)pyridin-3-yl)-1-(8-fluoroisoquinolin-4-yl)-5-(trifluoromethyl)-1H-pyrazole-4-carboxamide]: the IC50 in assay [1] came to 12 nM; in assay [2], 211 nM; in assay [3], 12 nM; in assay [4] it was 13 nM; in assay [5], 1580 nM.
In the case of `N#Cc1cc(NC(=O)c2cnn(-c3cncc4c(F)cccc34)c2C(F)(F)F)cnc1-n1nccn1` [Cpd 118, N-(5-cyano-6-(2H-1,2,3-triazol-2-yl)pyridin-3-yl)-1-(8-fluoroisoquinolin-4-yl)-5-(trifluoromethyl)-1H-pyrazole-4-carboxamide], the IC50 in assay [1] came to 17 nM; in assay [2], 158 nM; in assay [3], 12 nM; in assay [4] it was 15 nM; in assay [5], 832 nM.
The corresponding values for `N#Cc1cc(NC(=O)c2cnn(-c3cccc4nnsc34)c2C(F)(F)F)cnc1-n1nccn1` [Cpd 119, 1-(benzo[d][1,2,3]thiadiazol-7-yl)-N-(5-cyano-6-(2H-1,2,3-triazol-2-yl)pyridin-3-yl)-5-(trifluoromethyl)-1H-pyrazole-4-carboxamide] are 72 nM, 193 nM, 40 nM, 13 nM and 355 nM.
As to `Cc1nc(-n2nccn2)c(Cl)cc1NC(=O)c1cnn(-c2cccc3nnsc23)c1C(F)(F)F` [Cpd 121, 1-(benzo[d][1,2,3]thiadiazol-7-yl)-N-(5-chloro-2-methyl-6-(2H-1,2,3-triazol-2-yl)pyridin-3-yl)-5-(trifluoromethyl)-1H-pyrazole-4-carboxamide], the IC50 in assay [1] stood at 58 nM; in assay [2], 692 nM; in assay [3], 50 nM; in assay [4], 22 nM; in assay [5], 1900 nM.
